Laboratory results: patent US8470379B2, “Use of a potent product extracted from rhizomes of zingiber officinale in treating a disease associated with Helicobacter pylori” (Medical and Pharmaceutical Industry Technology and …, priority 2007, dated 2013)

Columns and labels:
[1] = tested on: Helicobacter pylori (ATCC 43504); assay: Anti-microbial test: MIC by agar dilution method; type: cell-based; details: ATCC43504, Columbia agar + 7% rabbit blood, 35° C., 72 hours, microaerophilic, highest concentration 300 μg/ml, read-out: Minimum inhibitory concentration (MIC)
Description: Minimum inhibitory concentration (MIC) of sample on Helicobacter pylori was determined by the agar dilution method [Malanosk G. J. et al. Effect of pH variation on the susceptibility of Helicobacter pylori to three marcolide antimicrobial agents and temafloxacin. Eur. J. Clin. Microbial Infect Dis. 12: pp. 131-133, 1993.]. The test substance was dissolved and serially diluted in DMSO to desired stock concentrations. For each concentration tested, a 0.01 ml aliquot is added to a 48-well plate containing 0.99 ml of Columbia agar base (Oxoid, England) supplemented 7% defibrinated rabbit blood. The inoculum of Helicobacter pylori (ATCC 43504) is prepared by suspending in brain heart infusion broth to a density of 5×10^5 CFU/ml. The final maximal concentration of DMSO is 1% and the initial test substance concentration is 300 μg/ml. The plates are incubated at 35° C. for 72 hours in the microaerophilic condition (Mixed gas N2 85%, CO2 10% and O2 5%) and then visually examined and scored positive (+) for inhibition of the colonies growth or negative (−) for no effect upon growth colonies. Vehicle-control and gentamicin are used as blank and positive controls, respectively. Each concentration is evaluated in duplicate.

[2] = tested on: Helicobacter pylori-induced gastric ulcer; assay: Helicobacter pylori-induced gastric ulcer in mice; type: in vivo, male CD-1 (Crl.) derived mice; details: 35 mg/kg orally for 7 days
Description: Effects of samples on Helicobacter pylori-induced gastric ulcer were evaluated as described previously [Marchetti, M., Arico, B., Burroni, D., Figura, N., Rappuoli, R. and Ghiara, P. Development of a mouse model of Helicobacter pylori infection that mimics human disease. Science 267: 1655-1658, 1995.]. Groups of 5 male CD-1 (Crl.) derived mice weighing 24±2 g were fasted for 18 hours prior to intragastric inoculation of clinical isolated Helicobacter pylori in suspension at 3.2×10^9 colony formation units/0.4 ml/mouse. Test samples and vehicle (2% CMC, 10 ml/kg) were each administered orally to test animals, starting one hour after the Helicobacter pylori inoculation, dosing twice daily (10:00 am and 4:00 pm) for 7 consecutive days. Omeprazole (1 mg/kg) and clarithromycin (10 mg/kg), in combination, were used for the positive control agents and administered orally to test animal once daily for 7 consecutive days under the same schedule. […] Gastric ulceration scored at four levels according to the degree of hemorrhage and severity of ulcerative lesions: • 0=normal appearance • 1=mild red spots • 2=moderate red spots and/or hemorrhage spots • 3=marked hemorrhage spots
Percentage inhibition on Helicobacter pylori-induced gastric ulcer was calculated as follows: (Scores of vehicle group−Scores of test group)/(Scores of vehicle group)×100% The results are shown in Table 3.

MIC [1]	SMILES	Percentage inhibition on Helicobacter pylori-induced gastric ulcer [2]
10 µg/mL	CCCCC[C@H](O)CC(=O)CCc1ccc(O)c(OC)c1 [Sample 6-Gingerol, 6-Gingerol]	25%
10 µg/mL	CCCCC/C=C/C(=O)CCc1ccc(O)c(OC)c1 [Shogaol]	
